Activity calls are given as the source filed them. The calls are words filed in the database; no cut-off is given here.
How the values were obtained:
[1] = Cytotoxicity in mouse BV2 cells assessed as cell viability at 80 uM incubated for 48 hrs by MTT assay (reference value: 100%); format: cell-based, BV-2; conditions: read-out: Activity
[2] = biological target: T1, Prostaglandin G/H synthase 2 (Homo sapiens) (UniProt P35354); experiment: Inhibition of COX2 (unknown origin) by immunoassay
T1 sequence (whole entry): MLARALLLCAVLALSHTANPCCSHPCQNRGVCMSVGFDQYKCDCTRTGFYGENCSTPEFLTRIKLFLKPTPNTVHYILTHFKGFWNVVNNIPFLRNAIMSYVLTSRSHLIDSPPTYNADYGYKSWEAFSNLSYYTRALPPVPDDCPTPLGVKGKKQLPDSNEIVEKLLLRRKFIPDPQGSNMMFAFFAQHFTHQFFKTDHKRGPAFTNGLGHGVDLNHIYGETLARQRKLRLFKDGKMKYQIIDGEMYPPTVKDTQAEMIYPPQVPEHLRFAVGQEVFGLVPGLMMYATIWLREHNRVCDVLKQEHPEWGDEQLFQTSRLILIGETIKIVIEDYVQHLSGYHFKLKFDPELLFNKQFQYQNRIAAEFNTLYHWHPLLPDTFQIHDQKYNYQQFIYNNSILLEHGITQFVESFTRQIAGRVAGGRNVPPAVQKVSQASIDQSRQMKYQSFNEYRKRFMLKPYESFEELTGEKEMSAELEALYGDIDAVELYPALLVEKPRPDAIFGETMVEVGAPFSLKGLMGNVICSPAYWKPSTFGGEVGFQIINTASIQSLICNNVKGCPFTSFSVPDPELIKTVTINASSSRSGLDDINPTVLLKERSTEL

[3] = Cytotoxicity in mouse BV2 cells assessed as cell viability at 10 uM incubated for 48 hrs by MTT assay (reference value: 100%); format: cell-based, BV-2; conditions: read-out: Activity
[4] = Cytotoxicity in mouse BV2 cells assessed as cell viability at 40 uM incubated for 48 hrs by MTT assay (reference value: 100%); format: cell-based, BV-2; conditions: read-out: Activity
BV-2 [5] = experiment: Suppression of LPS-induced morphological changes in mouse BV2 cells at 5 uM pre-incubated before LPS stimulation by phase contrast microscopy; format: functional, cell-based
BV-2 [6] = experiment: Suppression of LPS-induced morphological changes in mouse BV2 cells at 10 uM pre-incubated before LPS stimulation by phase contrast microscopy; format: functional, cell-based
BV-2 [7] = experiment: Inhibition of LPS-induced MMP9 production production in mouse BV2 cells assessed as MMP9 protein level pre-incubated before LPS stimulation by gelatin zymography (reference value: 105.113%); format: functional; set-up: scale not given: the % may be the effect or the level left
[8] = Cytotoxicity in mouse BV2 cells assessed as cell viability at 1 uM incubated for 48 hrs by MTT assay (reference value: 100%); format: cell-based, BV-2; conditions: read-out: Activity
BV-2 [9] = experiment: Inhibition of LPS-induced nitric oxide production in mouse BV2 cells assessed as nitric oxide level at 10 uM pre-incubated before LPS stimulation by Griess reagent based assay (reference value: 121.09%); format: functional; set-up: scale not given: the % may be the effect or the level left
BV-2 [10] = experiment: Inhibition of LPS-induced IL6 production in mouse BV2 cells assessed as IL6 level at 10 uM pre-incubated before LPS stimulation by ELISA (reference value: 146.75%); format: functional; set-up: scale not given: the % may be the effect or the level left
BV-2 [11] = experiment: Inhibition of LPS-induced IL6 production in mouse BV2 cells assessed as IL6 level at 20 uM pre-incubated before LPS stimulation by ELISA (reference value: 146.75%); format: functional; set-up: scale not given: the % may be the effect or the level left
BV-2 [12] = experiment: Inhibition of LPS-induced nitric oxide production in mouse BV2 cells assessed as nitric oxide level at 20 uM pre-incubated before LPS stimulation by Griess reagent based assay (reference value: 121.09%); format: functional; set-up: scale not given: the % may be the effect or the level left
Mus musculus [13] = species on record: Mus musculus; experiment: Inhibition of LPS-induced NFkappaB nuclear translocation in mouse BV2 cells pre-incubated before LPS stimulation by immunostaining based confocal laser microscopy; format: cell-based
[14] = biological target: Transcription factor Jun (Mus musculus) (UniProt P05627); experiment: Inhibition of LPS-induced AP1 nuclear translocation in mouse BV2 cells pre-incubated before LPS stimulation by immunostaining based confocal laser microscopy; format: cell-based
BV-2 [15] = experiment: Inhibition of LPS-induced TNFalpha production in mouse BV2 cells at 20 uM pre-incubated before LPS stimulation by ELISA; format: functional
BV-2 [16] = experiment: Inhibition of LPS-induced IL6 production in mouse BV2 cells at 10 uM pre-incubated before LPS stimulation by ELISA; format: functional
[17] = Cytotoxicity in mouse BV2 cells assessed as cell viability at 15 uM incubated for 48 hrs by MTT assay (reference value: 100%); format: cell-based, BV-2; conditions: read-out: Activity
BV-2 [18] = experiment: Inhibition of LPS-induced TNFalpha production in mouse BV2 cells assessed as TNFalpha level at 20 uM pre-incubated before LPS stimulation by ELISA (reference value: 142.71%); format: functional; set-up: scale not given: the % may be the effect or the level left
BV-2 [19] = experiment: Inhibition of LPS-induced MMP2 production production in mouse BV2 cells pre-incubated before LPS stimulation by gelatin zymography; format: functional, cell-based
[20] = Cytotoxicity in mouse BV2 cells assessed as cell viability at 100 uM incubated for 48 hrs by MTT assay (reference value: 100%); format: cell-based, BV-2; conditions: read-out: Activity
[21] = Cytotoxicity in mouse BV2 cells assessed as cell viability at 60 uM incubated for 48 hrs by MTT assay (reference value: 100%); format: cell-based, BV-2; conditions: read-out: Activity
BV-2 [22] = experiment: Inhibition of LPS-induced IL6 production in mouse BV2 cells at 20 uM pre-incubated before LPS stimulation by ELISA; format: functional
[23] = Cytotoxicity in mouse BV2 cells assessed as cell viability at 5 uM incubated for 48 hrs by MTT assay (reference value: 100%); format: cell-based, BV-2; conditions: read-out: Activity
BV-2 [24] = experiment: Cytotoxicity in mouse BV2 cells assessed as reduction in cell viability incubated for 48 hrs by MTT assay; format: cell-based; conditions: BV-2, 48 h
BV-2 [25] = experiment: Inhibition of LPS-induced MMP9 production production in mouse BV2 cells pre-incubated before LPS stimulation by gelatin zymography; format: functional, cell-based
BV-2 [26] = experiment: Inhibition of LPS-induced TNFalpha production in mouse BV2 cells assessed as TNFalpha level at 10 uM pre-incubated before LPS stimulation by ELISA (reference value: 142.71%); format: functional; set-up: scale not given: the % may be the effect or the level left
[27] = Cytotoxicity in mouse BV2 cells assessed as cell viability at 20 uM incubated for 48 hrs by MTT assay (reference value: 100%); format: cell-based, BV-2; conditions: read-out: Activity
[28] = Cytotoxicity in mouse BV2 cells assessed as cell viability at 0.5 uM incubated for 48 hrs by MTT assay (reference value: 100%); format: cell-based, BV-2; conditions: read-out: Activity
BV-2 [29] = experiment: Inhibition of LPS-induced MMP2 production production in mouse BV2 cells assessed as MMP2 protein level pre-incubated before LPS stimulation by gelatin zymography (reference value: 105.071%); format: functional; set-up: scale not given: the % may be the effect or the level left
BV-2 [30] = experiment: Inhibition of LPS-induced TNFalpha production in mouse BV2 cells at 10 uM pre-incubated before LPS stimulation by ELISA; format: functional
BV-2 [31] = experiment: Suppression of LPS-induced morphological changes in mouse BV2 cells at 1 to 20 uM pre-incubated before LPS stimulation by phase contrast microscopy; format: functional, cell-based
BV-2 [32] = experiment: Inhibition of LPS-induced TNFalpha production in mouse BV2 cells at 100 uM pre-incubated before LPS stimulation by ELISA; format: functional
Mus musculus [33] = experiment: Analgesic activity in Swiss albino mouse model of acetic acid induced writhing assessed as inhibition of pain response at 10 mg/kg, ip dosed 30 mins before acetic acid injection; format: functional
BV-2 [34] = experiment: Inhibition of LPS-induced TNFalpha production in mouse BV2 cells at 60 uM pre-incubated before LPS stimulation by ELISA; format: functional

Sequence of Transcription factor Jun (Mus musculus) (P05627 whole entry): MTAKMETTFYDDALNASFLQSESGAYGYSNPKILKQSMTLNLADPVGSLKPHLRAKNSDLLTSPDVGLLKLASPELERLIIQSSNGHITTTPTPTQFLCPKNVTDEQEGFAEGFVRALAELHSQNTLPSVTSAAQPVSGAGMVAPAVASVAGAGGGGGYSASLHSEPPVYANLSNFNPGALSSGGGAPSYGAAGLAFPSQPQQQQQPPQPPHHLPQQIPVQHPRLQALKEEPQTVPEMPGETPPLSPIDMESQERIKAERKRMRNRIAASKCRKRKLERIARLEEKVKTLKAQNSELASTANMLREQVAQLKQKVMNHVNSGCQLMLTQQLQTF

SMILES	inhibition [2]	viability at 48 h, 80 µM [1] [%]	viability at 48 h, 10 µM [3] [%]	viability at 48 h, 40 µM [4] [%]	Activity (BV-2 [5])	Activity (BV-2 [6])	viability at 48 h, 1 µM [8] [%]	Activity (BV-2 [9]) [%]	Activity (BV-2 [10]) [%]	Activity (BV-2 [11]) [%]	Activity (BV-2 [12]) [%]	viability at 48 h, 15 µM [17] [%]	Activity (BV-2 [18]) [%]	viability at 48 h, 100 µM [20] [%]	viability at 48 h, 60 µM [21] [%]	viability at 48 h, 5 µM [23] [%]	IC50 (BV-2 [24]) [µM]	Activity (BV-2 [26]) [%]	viability at 48 h, 20 µM [27] [%]	viability at 48 h, 0.5 µM [28] [%]	also measured
O=C1COCCN1c1ccc(/N=C\c2cn(Cc3ccc(F)cc3)c3ccccc23)cc1	inactive	59	90	77.7	–	inactive	87.8	–	–	–	–	86.1	–	55.5	67.4	69.3	> 100	–	84.2	102	Activity (BV-2 [31]): inactive
COc1ccc2c(c1)c(CC(=O)O)c(C)n2C(=O)c1ccc(Cl)cc1 [INDOMETHACIN]	–	–	–	–	–	–	–	–	–	–	–	–	–	–	–	–	–	–	–	–	inhibition at 100 µM (BV-2 [32]): 50%
O=C1COCCN1c1ccc(/N=C/c2cn(CCCn3cc(/C=N/c4ccc(N5CCOCC5=O)cc4)c4ccccc43)c3ccccc23)cc1	inactive	67.6	91.3	79.8	Active	Active	97.1	107.9186	126.5089	111.7925	102.1493	93.1	80.53	61.4	72.4	94.1	> 100	90.26	95.3	99.9	inhibition at 20 µM (BV-2 [15]): 43.6%; inhibition at 10 µM (BV-2 [16]): 13.8%; inhibition at 20 µM (BV-2 [22]): 23.8%; inhibition in vivo at 10 mg/kg (Mus musculus [33]): 65.5%; inhibition at 10 µM (BV-2 [30]): 36.8%
O=C1COCCN1c1ccc(/N=C\c2cn(C(=O)c3ccccc3)c3ccccc23)cc1	inactive	58.4	88.6	72.6	Active	Active	109	97.74	258.2615	185.4729	98.08	86.6	122.9276	52.9	57.5	87.3	> 100	199.2439	85.1	104	–
NC(=O)N1C(=O)/C(=C(\O)c2cccs2)c2cc(Cl)ccc21 [TENIDAP]	–	–	–	–	–	–	–	–	–	–	–	–	–	–	–	–	–	–	–	–	inhibition at 60 µM (BV-2 [34]): 67%

The next lines start with results.

inhibition [2]	SMILES	viability at 48 h, 80 µM [1] [%]	viability at 48 h, 10 µM [3] [%]	viability at 48 h, 40 µM [4] [%]	Activity (BV-2 [5])	Activity (BV-2 [6])	viability at 48 h, 1 µM [8] [%]	Activity (BV-2 [9]) [%]	Activity (BV-2 [10]) [%]	Activity (BV-2 [11]) [%]	Activity (BV-2 [12]) [%]	viability at 48 h, 15 µM [17] [%]	Activity (BV-2 [18]) [%]	viability at 48 h, 100 µM [20] [%]	viability at 48 h, 60 µM [21] [%]	viability at 48 h, 5 µM [23] [%]	IC50 (BV-2 [24]) [µM]	Activity (BV-2 [26]) [%]	viability at 48 h, 20 µM [27] [%]	viability at 48 h, 0.5 µM [28] [%]	also measured
inactive	O=C1COCCN1c1ccc(/N=C\c2c[nH]c3ccccc23)cc1	97.8	98.5	105	Active	Active	105	104.5249	91.1848	89.05	104.8643	100	56.03	101	90.8	101	> 100	66.71	104	104	Activity (BV-2 [7]): 96.273%; inhibition (Mus musculus [13]): Active; inhibition [14]: Active; inhibition at 20 µM (BV-2 [15]): 60.8%; inhibition at 10 µM (BV-2 [16]): 37.9%; inhibition (BV-2 [19]): Active; inhibition at 20 µM (BV-2 [22]): 39.3%; inhibition (BV-2 [25]): Active; Activity (BV-2 [29]): 94.929%; inhibition at 10 µM (BV-2 [30]): 53.3%
inactive	Cc1ccc(S(=O)(=O)n2cc(/C=N\c3ccc(N4CCOCC4=O)cc3)c3ccccc32)cc1	57.8	86.4	58.1	Active	Active	92.1	108.5973	101.2128	94.84	108.2579	71	70.48	57.4	56	89.1	> 100	90.58	56.7	90.9	Activity (BV-2 [7]): 95.906%; inhibition (Mus musculus [13]): Active; inhibition [14]: Active; inhibition at 20 µM (BV-2 [15]): 50.6%; inhibition at 10 µM (BV-2 [16]): 31%; inhibition at 20 µM (BV-2 [22]): 35.4%; Activity (BV-2 [29]): 96.245%; inhibition at 10 µM (BV-2 [30]): 36.5%
inactive	O=C1COCCN1c1ccc(/N=C\c2cn(Cc3ccccc3)c3ccccc23)cc1	58.7	91.3	69.5	Active	Active	89.3	129.638	265.8219	181.9833	103.8462	95.7	183.8555	56.2	65	84	> 100	217.4584	87.8	86.6	–
